Literature values as cited in patent publication US12128121B2, “Compositions comprising organo-silanol compounds, and applications” (EXSYMOL, priority 2020, dated 2024).
Where two headings read alike, the source gives them in different places.

C[Si](O)(O)O [CH3—Si(OH)3, monomethylsilanetriol]
concentration in water (as silicon, CH3—Si(OH)3): ~588 mg Si/I | concentration in water (limit before self-condensation): ~21 mM
